Experimental data taken from patent US20260000642A1 (Tay Therapeutics Limited, priority 2022, published 2026).

Legend:
[1] = tested on: hydroxyproline; assay: UUO model: kidney hydroxyproline by ELISA; format: in vivo, rat; conditions: UUO rats; 30 mg/kg; compared with sham and UUO + vehicle
Description: Serum for blood biochemistry analysis was collected into centrifuge tubes without coagulant four hours after final dosing. Blood plasma samples from group 3 was collected into tubes with K2EDTA four hours after final dosing. At the conclusion of the study (end of the 14-day period), animals were euthanized. Kidney tissue was collected four hours after final dosing. Ligated side kidney was divided into three copies 1/3 fix into 10% formalin for H&E analysis, 1/3 into RNA for PCR analysis of tissue biomarkers Col1a1, TGF-b1, MCP-1, IL-1b, IL-6, IL-17, TNF-a, and Timp1, and 1/3 for hydroxyproline assay analyzed by ELISA. RNA was extracted from tissue using the RNeasy mini kit (Qiagen). RNA concentration was measured using a NanoDrop One Spectrophotometer (ThermoFisher) and converted to cDNA using a High-Capacity RNA-to-cDNA kit (Invitrogen). RT-PCR was performed to measure levels of mRNA of different targets using TaqMan® Gene Expression Master Mix and TaqMan® probe/primer sets on a QuantStudio 6 Real-Time PCR System (ThermoFisher). Fold change in target gene expression was determined using the ΔΔCt method.

[2] = Plasma stability assay, mouse plasma; format: in vitro ADME; conditions: 37° C., Method 1 (5 μM)
Procedure: Exemplary compounds of the disclosure are stable upon incubation in mouse plasma. Stability is expressed as a % remaining after 120 minutes. The experimental methods and results (Table 2) are provided hereinafter.
Plasma Stability Assay, Method 1
From stock solution of compound in 10 mM DMSO, a working solution of 1 mM is prepared by diluting the compound in DMSO. To 398 μL of plasma pre-warmed at 37° C. for 15 minutes), 2 μL of working solution of compound is added, resulting in a final concentration of 5 μM (0.5% DMSO) for the compound. The sample is then incubated at 37° C. Aliquot is withdrawn at specified time-points (0, 15, 30, 60 and 120 mins). The reaction is stopped by addition of 450 μL cold acetonitrile containing internal standard (IS). […] Aliquots of the supernatant is analysed using LC-MS/MS. The percent remaining of the compound at each time point is calculated with respect to the control sample (0 min time-point).
Plasma Stability Assay, Method 2
A working solution of compound (500 μM) is prepared in DMSO (100%). To 735 μL of plasma, 15 μL of working solution of compound is added—resulting in a final concentration of 10 μM (2% DMSO) for the compound. […] The samples are centrifuged and the supernatants analyzed using LC-MS/MS. The percent remaining of the compound at each time point is calculated with respect to the control sample (0 min time-point).

[3] = tested on: CXCL10; assay: Human PBMC assay, CXCL10 by ELISA (IFN-γ stimulation); format: cell-based
Procedure: The impact of Examples 23, 80, and 101 on IL-17A, IL-22, and CXCL10 levels was analyzed in cryopreserved human peripheral blood mononuclear cells (PBMC) by ELISA.
For IL-17A and IL-22 assays, Examples 23, 80, and 101 were serially diluted from 10 mM in DMSO and further diluted in assay media to 100× the required final concentration, of which, 2 μL was added per well to a round-bottom 96-well tissue culture plate where the final DMSO concentration per well was 0.1%. CD2, CD3, and CD28 antibody-coated beads from the T-cell activation/expansion kit (Miltenyi Biotec) were added to the PBMC at a bead-to-cell ratio of 1:2. The mixture of PBMCs and beads were seeded into the wells of the round-bottom 96-well plate at a concentration of 2×10^5 cells/well in a total volume of 200 μL. The cells were cultured for 72 hours at 37° C. and 5% CO2 and then supernatants were collected and IL-17A and IL-22 levels were measured by ELISA. For the CXCL10 assay, Examples 23, 80, and 101 were serially diluted from 10 mM in DMSO and further diluted in assay media to 100× the required final concentration, of which 2 μL was added per well to a 96-well tissue culture plate. The final compound concentration ranged from 30,000 nM to 0.005 nM and the final DMSO concentration per well was 0.3%. PBMCs were seeded at approximately […] in the wells of the 96-well tissue culture plate in a total volume of 190 μL. The plate was incubated for 1 hour at 37° C. and 5% CO2. The cells were then stimulated with IFN-γ (15 ng/mL final concentration) in a volume of 10 μL. The cells were then cultured for 24 hours at 37° C. and 5% CO2. The supernatant was collected and CXCL10 levels were measured by ELISA.

[4] = tested on: IL-17A; assay: Human PBMC assay, IL-17A by ELISA (CD2/CD3/CD28 bead stimulation); format: cell-based; conditions: 72 hours
Procedure: CD2, CD3, and CD28 antibody-coated beads from the T-cell activation/expansion kit (Miltenyi Biotec) were added to the PBMC at a bead-to-cell ratio of 1:2. The mixture of PBMCs and beads were seeded into the wells of the round-bottom 96-well plate at a concentration of 2×10^5 cells/well in a total volume of 200 μL. The cells were cultured for 72 hours at 37° C. and 5% CO2 and then supernatants were collected and IL-17A and IL-22 levels were measured by ELISA. […] The final compound concentration ranged from 30,000 nM to 0.005 nM and the final DMSO concentration per well was 0.3%. PBMCs were seeded at approximately […] in the wells of the 96-well tissue culture plate in a total volume of 190 μL. The plate was incubated for 1 hour at 37° C. and 5% CO2. […] The cells were then cultured for 24 hours at 37° C. and 5% CO2. The supernatant was collected and CXCL10 levels were measured by ELISA.

[5] = Plasma stability assay, rat plasma; format: in vitro ADME; conditions: 37° C., Method 1 (5 μM)
How it was run: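 Compound incubated in plasma at 37° C, either at 5 μM (0.5% DMSO) sampled at 0, 15, 30, 60, 120 min (Method 1) or at 10 μM (2% DMSO) sampled at 0, 15, 30, 60, 90, 120 min (Method 2). Quenched with cold acetonitrile plus internal standard; LC-MS/MS, % remaining relative to 0 min.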

## CNC(=O)c1[nH]c(C(=O)NC2CCC2)cc1O[C@@H](C)c1ccccc1 [Example 101, N^5-cyclobutyl-N^2-methyl-3-(1-phenylethoxy)-1H-pyrrole-2,5-dicarboxamide]
[1]
  hydroxyproline levels: No significant differences
[2]
  Plasma Stability (% remaining at 120 minutes) Mouse: >99%
[3]
  selectivity to induction of CXCL10 relative to IL-17A and IL-22: showed selectivity
[3]; IFN-γ, 24 hours, ELISA
  IC50 for CXCL-10 relative to GSK620: substantially lower 1050
[4]
  IC50 for IL-17A relative to GSK620: substantially lower 1050
[5]
  Plasma Stability (% remaining at 120 minutes) Rat: 61%
